Experimental data reported in PMC6274259, “New 3-Cyano-2-Substituted Pyridines Induce Apoptosis in MCF 7 Breast Cancer Cells” (Molecules, 2016).

What was measured:
[1] = system: MDA-MB-231 human breast adenocarcinoma cell line; experiment: WST-1 cell viability assay, MDA-MB-231; format: cell-based; settings: WST-1, 24 h treatment, mean ± S.D of three independent experiments
From the text: (§1) The synthesized compounds were screened for their cytotoxicity on five cancer cell lines, namely SK-OV-3, MCF-7, MDA-MB-231, HCT-116 and RKO, using a WST colorimetric assay. The assay principle is based upon the reduction of the tetrazolium salt WST-1 to formazan by cellular mitochondrial dehydrogenases present in viable cells. […] Among the latter compounds the benzohydrazide derivative 9a emerged with the lowest IC50 in this study against MCF-7 cells compared to 5-FU. […] Based on the fact that 9a had less cytotoxic effects on normal breast epithelial cells it was subjected to further studies.
(§2) The following cell lines were used for the screening stage, obtained from the American Type Culture Collection (ATCC, Manassas, VA, USA); SK-OV-3 (HTB-77), MCF-12A (ATCC CRL-10782), MDA-MB-231 (ATCC HTB-26), HCT-116 (CCL-247), RKO (CRL-2577) and sub-culturing of the above cell lines was conducted in 75 cm^2 flasks. The old culture media was removed and discarded after assessing the confluency of the cells and the cells were rinsed with 2–3 mL diluted trypsin (1×) (trypsin/EDTA solution consists of 0.025% trypsin and 0.01% EDTA in PBS), for about 5 minutes for complete detachment. The cells were observed under the inverted microscope until the cell layer is completely dispersed. 75 cm^2 flasks were prepared and 16 mL of DMEM media for SK-OV-3, MCF-7, MDA-MB-231, (DMEM 4500 mg glucose) and RPMI media for HCT-116 were added to each flask. The cells were aspirated gently and added to the flasks. DMEM 4500 mg/L high glucose with 10% FBS, 5% streptomycin and penicillin, RPMI 1640 (prepared by adding 5% heat-inactivated FCS and 2 mm glutamine) were used. DMEM was also used for MCF-12A cells with the addition of human epidermal growth factor 20 ng/mL, insulin 0.01 mg/mL and hydrocortisone 500 ng/mL.
(§3) The synthesized compounds were screened for their anti-proliferative activity using 5-FU (F6627-1G, Sigma-Aldrich, St. Louis, MO, USA) as reference compound. A concentration of 0.4% DMSO was used in all experiment after ensuring 100% viability of the cell lines with this concentration. A 25 mM stock concentration of all compounds was prepared for further studies and analysis.
(§4) Cells were trypsinized and placed in a 15 mL Falcon tube, the cells were centrifuged for 3 min at 1000 rpm. Trypsin is decanted using a sterile pipette and then the pellet is loosened by flicking the tube few times then 5–10 mL warm DMEM or RPMI were added to the Falcon tube and the pellet is resuspended. Cell count was done next by taking 10 μL of the suspension into the cell counting slide and read under 10× cells/mL. A cell stock of 50,000 cells/mL was prepared for the 96 wells. Cells (100 μL) were added to each well using a sterile pipette each time to ensure consistency. The experiment was planned ahead of time using excel sheet, 3–6 wells were reserved as blank media while 3–6 wells for vehicle (DMSO). The plate was incubated for 24 h for compound treatment step. DMEM media was used to prepare different dilutions of the compounds. The old DMEM media was removed from the wells using sterile pipette in the hood and the media was replaced with 100 μL media with each compound. The plate was incubated for 24 h. After 24 h incubation, WST-1 reagent (Sigma) was added to each well and then the plate was incubated for 1 h before measuring the absorbance using VICTOR™ Multilabel Plate Reader (Perkin Elmer, Beaconsfield, UK). The absorbance of the colored solution can be quantified by measuring at a certain wavelength (usually between 500–600 nm), in this experiment the first reading was conducted at 540 nm and the second reading at 690 nm for the reference wavelength. The percentage of cell viability was determined as the ratio of the absorbance of the sample vs the control. Three independent experiments were performed. […] 5-Florouracil (Sigma-Aldrich, F6627-1G) was used as reference standard.

[2] = system: SK-OV-3 human ovarian carcinoma cell line; experiment: WST-1 cell viability assay, SK-OV-3; format: cell-based; settings: WST-1, 24 h treatment, mean ± S.D of three independent experiments
From the text: as §1, §2, §3, §4

[3] = system: MCF-7 human breast adenocarcinoma cell line; experiment: WST-1 cell viability assay, MCF-7; format: cell-based; settings: WST-1, 24 h treatment, mean ± S.D of three independent experiments
From the text: as §1, §2, §3, §4

[4] = system: HCT-116 human colon carcinoma cell line; experiment: WST-1 cell viability assay, HCT-116; format: cell-based; settings: WST-1, 24 h treatment, mean ± S.D of three independent experiments
From the text: as §1, §2, §3, §4

[5] = system: RKO human colon carcinoma cell line; experiment: WST-1 cell viability assay, RKO; format: cell-based; settings: WST-1, 24 h treatment, mean ± S.D of three independent experiments
From the text: as §1, §2, §3, §4

[6] = Homo sapiens, Colon carcinoma cell

Row | IC50 ([1]; Homo sapiens, MDA-MB-231) [µM] | IC50 ([2]; Homo sapiens, SK-OV-3) [µM] | IC50 ([3]; Homo sapiens, MCF7, 24 h) [µM] | IC50 ([4]; Homo sapiens, HCT-116) [µM] | IC50 [5, 6] [µM] | melting point [°C] | IC50 [1] [µM] | IC50 [2] [µM] | IC50 [3] [µM] | IC50 [4] [µM] | IC50 [5] [µM] | Structure (SMILES)
1 | 40 ± 1.36 | 18.2 ± 0.98 | 15.5 ± 0.46 | 26.2 ± 1.22 | 19.8 ± 0.37 |  |  |  |  |  |  | CCOc1nc(-c2ccc(OC)c(OC)c2)cc(-c2ccc(OC)c(OC)c2)c1C#N [Compound 4b, 2-Ethoxy-4,6-bis(3,4-dimethoxyphenyl)pyridine-3-carbonitrile]
2 | > 50 | 26.2 ± 0.95 | > 50 | 33.9 ± 0.87 | > 50 | 161 to 163 |  |  |  |  |  | COc1ccc(-c2cc(-c3ccc(OC)c(OC)c3)c(C#N)c(OCC(=O)n3nc(C)cc3C)n2)cc1OC [Compound 11, 4,6-Bis(3,4-dimethoxyphenyl)-2-(2-(3,5-dimethyl-1H-pyrazol-1-yl)-2-oxoethoxy)pyridine-3-carbonitrile]
3 | 26.8 ± 0.33 | 11.34 ± 0.02 | 13.4 ± 0.98 | 21.8 ± 0.85 | 12.1 ± 1.26 | 120 to 122 |  |  |  |  |  | COc1ccc(-c2cc(-c3ccc(OC)c(OC)c3)c(C#N)c(OCC(=O)NNS(=O)(=O)c3ccccc3)n2)cc1OC [Compound 10a, N'-[2-(3-cyano-4,6-bis(3,4-dimethoxyphenyl)pyridin-2-yloxy)acety]benzenesulfohydrazide]
4 | 37.9 ± 1.25 | 12.3 ± 0.88 | 18.1 ± 1.76 | 9.1 ± 0.97 | 15.2 ± 1.13 | 144 to 146 |  |  |  |  |  | CCSC(=S)NNC(=O)COc1nc(-c2ccc(OC)c(OC)c2)cc(-c2ccc(OC)c(OC)c2)c1C#N [Compound 7b, Ethyl 2-[2-(3-cyano-4,6-bis(3,4-dimethoxyphenyl)pyridin-2-yloxy)acetyl]hydrazinecarbodithioate]
5 | > 50 | 20.3 ± 1.72 | > 50 | 40.4 ± 1.76 | > 50 | 189 to 190 |  |  |  |  |  | COc1ccc(-c2cc(-c3ccc(OC)c(OC)c3)c(C#N)c(OCC(=O)N3N=C(C)CC3=O)n2)cc1OC [Compound 12, 4,6-bis(3,4-Dimethoxyphenyl)-2-(2-(3-methyl-5-oxo-4,5-dihydro-1H-pyrazol-1-yl)-2-oxoethoxy)pyridine-3-carbonitrile]
6 | 22.4 ± 1.71 | 9.17 ± 0.38 | 8.12 ± 0.47 | 16.1 ± 1.07 | 15.7 ± 0.86 | 190 to 192 |  |  |  |  |  | COc1ccc(S(=O)(=O)NNC(=O)COc2nc(-c3ccc(OC)c(OC)c3)cc(-c3ccc(OC)c(OC)c3)c2C#N)cc1 [Compound 10b, N'-[2-(3-cyano-4,6-bis(3,4-dimethoxyphenyl)pyridin-2-yloxy)acetyl]-4-methoxybenzenesulfohydrazide]
7 | 44.9 ± 1.74 | 22.1 ± 1.32 | 12.3 ± 0.77 | 10.1 ± 0.76 | 18.1 ± 1.03 |  |  |  |  |  |  | CCCOc1nc(-c2ccc(OC)c(OC)c2)cc(-c2ccc(OC)c(OC)c2)c1C#N [Compound 4c, 4,6-bis(3,4-Dimethoxyphenyl)-2-propoxypyridine-3-carbonitrile]
8 | 32.1 ± 0.84 | 11.4 ± 0.72 | 9.08 ± 0.37 | 20.3 ± 0.85 | 13.2 ± 0.77 |  |  |  |  |  |  | COc1ccc(-c2cc(-c3ccc(OC)c(OC)c3)c(C#N)c(OC)n2)cc1OC [Compound 4a, 2-Methoxy-4,6-bis(3,4-dimethoxyphenyl)pyridine-3-carbonitrile]
9 | > 50 | 30.3 ± 1.12 | > 50 | > 50 | > 50 |  |  |  |  |  |  | COc1ccc(-c2cc(-c3ccc(OC)c(OC)c3)c(C#N)c(OCc3nnc(S)o3)n2)cc1OC [Compound 14, 2-((5-Mercapto-1,3,4-oxadiazol-2-yl)methoxy)-4,6-bis(3,4-dimethoxyphenyl)pyridine-3-carbonitrile]
10 |  |  |  |  |  |  | 15.1 ± 0.94 | 32.2 ± 1.03 | 7.06 ± 0.91 | 12.2 ± 1.1 | 20.2 ± 1.16 | O=c1[nH]cc(F)c(=O)[nH]1 [Compound 5-FU, 5-Florouracil, reference compound]
11 | 25.1 ± 0.87 | 10.2 ± 0.44 | 15.4 ± 0.94 | 14.9 ± 0.98 | 22.1 ± 0.97 |  |  |  |  |  |  | CCOC(=O)COc1nc(-c2ccc(OC)c(OC)c2)cc(-c2ccc(OC)c(OC)c2)c1C#N [Compound 5, Ethyl 2-(3-Cyano-4,6-bis(3,4-dimethoxyphenyl)pyridin-2-yloxy)acetate]
